The values below come from patent US20240158418A1 (C4 Therapeutics, Inc., priority 2021, published 2024).

Structures are written as SMILES. pIC50: −log10 of the molar value. Where two headings read alike, the source gives them in different places.

Common to all, as to type: cell-based
One assay deals with T1, EGFR L858R-T790M (Homo sapiens, UniProt P00533, L858R/T790M).
T1 construct: NCI-H1975 (harboring EGFR heterozygous L858R-T790M mutations); host or cells: NCI-H1975
Kind of assay: EGFR degradation, Total EGFR (L858R-specific) HTRF, NCI-H1975. The settings on record: 6 hours. In short, it runs like this:
(§1)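 Cells in RPMI 1640 + 10% FBS treated 6 h at 37°C with compound, 11-point half-log titration from 10 μM top, in duplicate. pY1068 and total EGFR read by HTRF (pan-EGFR antibody for wild-type A431; L858R-specific for mutants); IC50 for phospho inhibition, DC50 for 50% degradation.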

A further assay deals with T2, EGFR L858R-T790M-C797S (Homo sapiens, UniProt P00533, C797S/L858R/T790M).
T2 construct: generated using CRISPR technology to introduce the additional C797S mutation by Horizon Discovery; host or cells: NCI-H1975+CS (CRISPR knock-in of C797S)
Kind of assay: EGFR degradation, Total EGFR (L858R-specific) HTRF, NCI-H1975+CS. The conditions noted are these: 6 hours. In short, it runs like this: as §1

Assay [1] concerns the target T3, pY1068 EGFR L858R-T790M-C797S (Homo sapiens, UniProt P00533, C797S/L858R/T790M).
T3 construct: generated using CRISPR technology to introduce the additional C797S mutation by Horizon Discovery; host or cells: NCI-H1975+CS (CRISPR knock-in of C797S)
Kind of assay: Phospho-EGFR (pY1068) inhibition HTRF, NCI-H1975+CS. The conditions noted are these: 6 hours, read-out: pEGFR IC50. An excerpt: (§2) NCI-H1975 (harboring EGFR heterozygous L858R-T790M mutations) and NCI-H3255 (harboring EGFR heterozygous L858R mutation) were purchased from ATCC and NCI, respectively. NCI-H1975+CS (harboring EGFR heterozygous L858R-T790M-C797S mutations) was generated using CRISPR technology to introduce the additional C797S mutation by Horizon Discovery. A431 (harboring EGFR wildtype) was purchased from ATCC. RPMI 1640 no-phenol red medium and fetal bovine serum (FBS) were purchased from Gibco (Grand Island, NY, USA). Cell culture flasks and 384-well microplates were acquired from VWR (Radnor, PA, USA). Phosphorylated (pY1068) EGFR and Total EGFR (using L858R-specific detection antibody and pan-EGFR antibody for EGFR mutant cell lines and EGFR wild-type cell lines, respectively) HTRF assay kits were purchased from Cisbio (Bedford, MA, USA).
(§3) Degradation of EGFR protein containing L858R mutation or wild-type was determined based on quantification of FRET signal using a Total EGFR (L858R-specific or pan-EGFR detecting) HTRF assay kit. Phospho-EGFR (pEGFR) inhibition was determined based on quantification of FRET signal using a pY1068 EGFR HTRF assay kit. In separate assay plates, test compounds were added to the 384-well plate from a top concentration of 10 μM with 11 points, half log titration in duplicates. For each assay, 12.5 uL of cells suspended in assay media (RPMI 1640 no-phenol red medium+10% FBS) at cell densities indicated for each cell line in Table 8 below were dispensed using a multi-channel pipette to 384-well low volume white HTRF microplates containing a duplicate concentration range of test compounds and DMSO controls. The plates were kept at 37° C. with 5% CO2 for 6 hours and then incubated with either phospho EGFR or Total EGFR HTRF detection antibodies according to the cell line and EGFR mutant being assayed. Cells treated in the absence of the test compound were the negative control. Positive control was set by wells containing all reagents but no cells. FRET signal was acquired on EnVision™ Multilabel Reader (PerkinElmer, Santa Clara, CA, USA). Compound concentration that achieves 50% degradation and inhibition was reported as DC50 and IC50, respectively.

A further assay concerns the target T4, pY1068 EGFR L858R-T790M (Homo sapiens, UniProt P00533, L858R/T790M).
T4 construct: NCI-H1975 (harboring EGFR heterozygous L858R-T790M mutations); host or cells: NCI-H1975
In words: Phospho-EGFR (pY1068) inhibition HTRF, NCI-H1975. The settings on record: 6 hours, read-out: pEGFR IC50.
Source text: as §2, §3

In another assay the target is T5, pY1068 EGFR L858R (Homo sapiens, UniProt P00533, L858R).
T5 construct: NCI-H3255 (harboring EGFR heterozygous L858R mutation); host or cells: NCI-H3255
In words: Phospho-EGFR (pY1068) inhibition HTRF, NCI-H3255. The conditions noted are these: 6 hours, read-out: pEGFR IC50.
Source text: as §2, §3

Another assay has as its target EGFR L858R (Homo sapiens, UniProt P00533, L858R). Kind of assay: EGFR degradation, Total EGFR (L858R-specific) HTRF, NCI-H3255. The arrangement: NCI-H3255 (harboring EGFR heterozygous L858R mutation); host or cells: NCI-H3255. The settings on record: 6 hours. In short, it runs like this:
as §1

Setting [2] is: H1975 (L858R-T790M), read-out: tEGFR DC50.
Setting [3] is: Table 9A, NCI-H1975 cells, Total EGFR HTRF, read-out: H1975 EGFR DC50.
[4] abbreviates: Table 9A, NCI-H1975+CS cells, Total EGFR HTRF, read-out: H1975+ CS EGFR DC50.
Where [5] appears, read: Table 9A, NCI-H3255 cells, Total EGFR HTRF, read-out: H3255 EGFR DC50.
Setting [6] is: Table 9B, NCI-H1975 cells, Total EGFR HTRF, read-out: H1975 EGFR DC50.
The mark [7] stands for this setting: Table 9B, NCI-H1975 C797S clone, Total EGFR HTRF, read-out: H1975 C797S clone EGFR DC50.
The mark [8] stands for this setting: Table 9B, NCI-H3255 cells, Total EGFR HTRF, read-out: H3255 EGFR DC50.

T2 sequence (P00533 25-1210 T790M/C797S/L858R): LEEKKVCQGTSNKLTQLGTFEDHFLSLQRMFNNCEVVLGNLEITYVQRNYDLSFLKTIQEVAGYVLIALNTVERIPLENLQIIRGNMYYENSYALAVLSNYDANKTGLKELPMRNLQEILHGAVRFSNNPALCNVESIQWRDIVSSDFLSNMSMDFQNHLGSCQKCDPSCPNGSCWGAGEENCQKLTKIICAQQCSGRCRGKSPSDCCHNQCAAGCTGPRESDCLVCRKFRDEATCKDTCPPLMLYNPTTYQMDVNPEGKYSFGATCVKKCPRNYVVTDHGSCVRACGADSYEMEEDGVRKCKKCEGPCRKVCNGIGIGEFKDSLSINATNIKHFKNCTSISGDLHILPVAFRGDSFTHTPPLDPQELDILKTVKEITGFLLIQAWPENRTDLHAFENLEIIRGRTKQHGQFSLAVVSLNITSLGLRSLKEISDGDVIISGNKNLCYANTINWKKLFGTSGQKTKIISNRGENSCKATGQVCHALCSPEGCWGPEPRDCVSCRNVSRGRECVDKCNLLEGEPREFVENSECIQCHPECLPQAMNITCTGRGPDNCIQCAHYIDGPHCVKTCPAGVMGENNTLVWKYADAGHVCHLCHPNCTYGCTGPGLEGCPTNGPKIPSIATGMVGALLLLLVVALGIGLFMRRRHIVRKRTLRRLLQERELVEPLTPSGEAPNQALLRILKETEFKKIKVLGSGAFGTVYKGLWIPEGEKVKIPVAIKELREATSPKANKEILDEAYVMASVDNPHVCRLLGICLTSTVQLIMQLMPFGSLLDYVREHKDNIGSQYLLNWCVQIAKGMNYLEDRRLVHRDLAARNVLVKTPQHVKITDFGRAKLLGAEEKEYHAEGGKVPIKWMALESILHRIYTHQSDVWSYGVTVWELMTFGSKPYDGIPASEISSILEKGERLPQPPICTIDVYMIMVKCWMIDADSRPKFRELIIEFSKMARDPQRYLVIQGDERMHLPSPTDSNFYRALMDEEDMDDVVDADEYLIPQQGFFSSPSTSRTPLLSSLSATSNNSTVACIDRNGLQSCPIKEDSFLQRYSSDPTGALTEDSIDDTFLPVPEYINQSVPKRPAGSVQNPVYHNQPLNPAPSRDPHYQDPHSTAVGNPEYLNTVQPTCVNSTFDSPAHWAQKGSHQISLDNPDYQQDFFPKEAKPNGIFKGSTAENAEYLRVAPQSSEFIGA
EGFR L858R, sequence (P00533 25-1210 L858R): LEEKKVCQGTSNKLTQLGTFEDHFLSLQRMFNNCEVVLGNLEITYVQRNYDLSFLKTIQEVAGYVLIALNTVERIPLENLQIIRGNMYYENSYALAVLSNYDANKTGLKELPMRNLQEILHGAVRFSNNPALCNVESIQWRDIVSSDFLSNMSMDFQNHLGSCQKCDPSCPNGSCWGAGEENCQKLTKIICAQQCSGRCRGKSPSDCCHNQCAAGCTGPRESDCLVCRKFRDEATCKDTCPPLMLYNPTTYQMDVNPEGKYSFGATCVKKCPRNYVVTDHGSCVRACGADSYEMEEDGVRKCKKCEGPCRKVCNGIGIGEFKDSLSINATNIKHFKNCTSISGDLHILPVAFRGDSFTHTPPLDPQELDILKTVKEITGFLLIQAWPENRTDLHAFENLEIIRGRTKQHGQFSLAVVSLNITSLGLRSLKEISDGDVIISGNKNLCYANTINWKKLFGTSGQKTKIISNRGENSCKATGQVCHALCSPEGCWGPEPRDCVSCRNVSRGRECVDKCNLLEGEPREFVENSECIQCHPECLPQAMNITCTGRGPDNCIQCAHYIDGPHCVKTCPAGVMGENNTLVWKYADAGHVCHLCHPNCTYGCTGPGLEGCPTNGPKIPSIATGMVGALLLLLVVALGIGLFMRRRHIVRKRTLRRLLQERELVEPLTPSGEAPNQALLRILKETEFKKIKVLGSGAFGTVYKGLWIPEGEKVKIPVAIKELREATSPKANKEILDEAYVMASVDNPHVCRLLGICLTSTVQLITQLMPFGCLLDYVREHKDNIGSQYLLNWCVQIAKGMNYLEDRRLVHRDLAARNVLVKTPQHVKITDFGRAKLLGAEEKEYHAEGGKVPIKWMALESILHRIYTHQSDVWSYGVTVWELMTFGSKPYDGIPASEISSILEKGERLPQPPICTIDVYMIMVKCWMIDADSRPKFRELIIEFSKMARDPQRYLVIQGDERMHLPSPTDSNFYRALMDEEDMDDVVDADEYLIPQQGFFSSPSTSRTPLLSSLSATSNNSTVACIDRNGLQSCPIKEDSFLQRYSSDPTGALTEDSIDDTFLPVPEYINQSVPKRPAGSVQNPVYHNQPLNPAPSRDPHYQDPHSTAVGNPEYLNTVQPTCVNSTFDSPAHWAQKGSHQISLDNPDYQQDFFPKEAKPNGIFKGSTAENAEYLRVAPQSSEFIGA
T1 sequence (P00533 25-1210 T790M/L858R): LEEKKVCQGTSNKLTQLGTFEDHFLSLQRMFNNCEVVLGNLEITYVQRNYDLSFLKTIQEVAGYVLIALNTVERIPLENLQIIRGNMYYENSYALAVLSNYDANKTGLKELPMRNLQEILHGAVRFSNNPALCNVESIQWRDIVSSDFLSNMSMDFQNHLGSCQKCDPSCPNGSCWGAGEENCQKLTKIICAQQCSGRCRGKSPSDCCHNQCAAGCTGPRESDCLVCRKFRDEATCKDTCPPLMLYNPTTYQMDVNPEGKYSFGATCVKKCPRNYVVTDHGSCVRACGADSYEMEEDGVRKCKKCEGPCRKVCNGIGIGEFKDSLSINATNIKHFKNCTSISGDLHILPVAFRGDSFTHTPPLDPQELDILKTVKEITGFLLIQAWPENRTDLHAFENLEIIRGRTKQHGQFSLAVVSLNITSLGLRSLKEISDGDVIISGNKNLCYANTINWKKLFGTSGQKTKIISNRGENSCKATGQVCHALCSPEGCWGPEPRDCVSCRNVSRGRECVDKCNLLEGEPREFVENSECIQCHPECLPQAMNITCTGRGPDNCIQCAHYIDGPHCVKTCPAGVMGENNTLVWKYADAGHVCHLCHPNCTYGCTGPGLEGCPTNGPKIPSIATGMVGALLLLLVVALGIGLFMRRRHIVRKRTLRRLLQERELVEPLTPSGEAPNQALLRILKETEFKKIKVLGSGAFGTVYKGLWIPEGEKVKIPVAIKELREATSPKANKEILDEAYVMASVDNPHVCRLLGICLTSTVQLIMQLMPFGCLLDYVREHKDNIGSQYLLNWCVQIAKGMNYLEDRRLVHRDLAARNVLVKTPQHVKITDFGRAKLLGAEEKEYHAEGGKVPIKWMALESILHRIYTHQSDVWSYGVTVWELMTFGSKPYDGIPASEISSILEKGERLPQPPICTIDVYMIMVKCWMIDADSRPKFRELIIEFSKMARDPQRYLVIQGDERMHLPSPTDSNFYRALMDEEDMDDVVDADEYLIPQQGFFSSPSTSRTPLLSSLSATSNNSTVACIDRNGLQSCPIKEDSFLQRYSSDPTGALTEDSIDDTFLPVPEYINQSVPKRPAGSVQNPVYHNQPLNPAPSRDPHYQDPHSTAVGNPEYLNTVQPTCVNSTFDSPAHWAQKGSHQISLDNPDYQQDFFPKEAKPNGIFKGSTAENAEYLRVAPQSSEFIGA
T4 sequence (P00533 25-1210 T790M/L858R): as above

For `O=C1CCC(Nc2ccc(C3CCN(CC(=O)N4CC5(C4)CN(c4ccc(-c6cc(F)c7c(c6)C(=O)N(C(C(=O)Nc6nccs6)c6ncn8c6CCC8)C7)cc4)C5)CC3(F)F)cc2)C(=O)N1` (single isomer, unassigned) [Compound 4, 2-(6,7-dihydro-5H-pyrrolo[1,2-c]imidazol-1-yl)-2-(6-(4-(6-(2-(4-(4-((2,6-dioxopiperidin-3-yl)amino)phenyl)-3,3-difluoropiperidin-1-yl)acetyl)-2,6-diazaspiro[3.3]heptan-2-yl)phenyl)-4-fluoro-1-oxoisoindolin-2-yl)-N-(thiazol-2-yl)acetamide], the DC50 at EGFR L858R-T790M (setting [2]) is 15 nM; on EGFR L858R-T790M (setting [3]), < 50 nM; on EGFR L858R-T790M-C797S (H1975 + CS (L858R-T790M-C797S), read-out: tEGFR DC50), 33 nM; on EGFR L858R (H3255 (L858R), read-out: tEGFR DC50), 17 nM. Besides, the pIC50 in assay [1] is 7.66; on pY1068 EGFR L858R-T790M, 7.82; at pY1068 EGFR L858R it was 7.80.

Turning to `O=C1CC[C@H](Nc2ccc(N3CCC(O)(CC(=O)N4CC5(CCN(c6ccc(-c7cc(F)c8c(c7)C(=O)N(C(C(=O)Nc7nccs7)c7ncn9c7CCC9)C8)cc6)CC5)C4)CC3)c(F)c2)C(=O)N1` (stereo partly shown) [Compound 12], the DC50 on EGFR L858R-T790M (setting [2]) was 15 nM; at EGFR L858R-T790M (setting [3]), < 50 nM. At pY1068 EGFR L858R-T790M, the pIC50 was 7.70.

In the case of `O=C1CC[C@H](Nc2ccc(C3CCN(CC(=O)N4CCN(Cc5ccc(-c6cc(F)c7c(c6)C(=O)N(C(C(=O)Nc6nccs6)c6ncn8c6CCC8)C7)cc5)CC4)CC3)c(F)c2)C(=O)N1` (stereo partly drawn) [Compound 58, 2-(6,7-dihydro-5H-pyrrolo[1,2-c]imidazol-1-yl)-2-[6-[4-[[4-[2-[4-[4-[[(3S)-2,6-dioxo-3-piperidyl]amino]-2-fluoro-phenyl]-1-piperidyl]acetyl]piperazin-1-yl]methyl]phenyl]-4-fluoro-1-oxo-isoindolin-2-yl]-N-thiazol-2-yl-acetamide], the DC50 on EGFR L858R-T790M (setting [3]), at EGFR L858R-T790M-C797S (setting [4]) and at EGFR L858R (setting [5]) was < 50 nM throughout.

Take `O=C1CC[C@H](Nc2ccc(C3CCN(C(=O)CN4CCN(Cc5ccc(-c6cc(F)c7c(c6)C(=O)N(C(C(=O)Nc6nccs6)c6ncn8c6CCC8)C7)cc5)CC4)CC3)c(F)c2)C(=O)N1` (stereo partly drawn) [Compound 59, 2-(6,7-dihydro-5H-pyrrolo[1,2-c]imidazol-1-yl)-2-[6-[4-[[4-[2-[4-[4-[[(3S)-2,6-dioxo-3-piperidyl]amino]-2-fluoro-phenyl]-1-piperidyl]-2-oxo-ethyl]piperazin-1-yl]methyl]phenyl]-4-fluoro-1-oxo-isoindolin-2-yl]-N-thiazol-2-yl-acetamide]: the DC50 on EGFR L858R-T790M (setting [3]), on EGFR L858R-T790M-C797S (setting [4]) and at EGFR L858R (setting [5]) was < 50 nM throughout.

On to `Cn1nc(N2CCC(=O)NC2=O)c2ccc([C@@H]3CCN(CC(=O)N4CC5(C4)CN(c4ccc(-c6cc(F)c7c(c6)C(=O)N(C(C(=O)Nc6nccs6)c6ncn8c6CCC8)C7)cc4)C5)CC3(F)F)cc21` (stereo partly drawn) [Compound 94, 2-(6,7-dihydro-5H-pyrrolo[1,2-c]imidazol-1-yl)-2-(6-(4-(6-(2-((S)-4-(3-(2,4-dioxotetrahydropyrimidin-1(2H)-yl)-1-methyl-1H-indazol-6-yl)-3,3-difluoropiperidin-1-yl)acetyl)-2,6-diazaspiro[3.3]heptan-2-yl)phenyl)-4-fluoro-1-oxoisoindolin-2-yl)-N-(thiazol-2-yl)acetamide], for which the DC50 at EGFR L858R-T790M (setting [6]), on EGFR L858R-T790M-C797S (setting [7]) and at EGFR L858R (setting [8]) was < 50 nM each time.

In the case of `O=C1CCC(Nc2ccc(C3CCN(CC(=O)N4CCC(NC(=O)c5ccc(C#Cc6cc(F)c7c(c6)C(=O)N(C(C(=O)Nc6nccs6)c6ncn8c6CCC8)C7)cn5)CC4)CC3)cc2)C(=O)N1` (stereo not shown) [Compound 97, 5-((2-(1-(6,7-dihydro-5H-pyrrolo[1,2-c]imidazol-1-yl)-2-oxo-2-(thiazol-2-ylamino)ethyl)-7-fluoro-3-oxoisoindolin-5-yl)ethynyl)-N-(1-(2-(4-(4-((2,6-dioxopiperidin-3-yl)amino)phenyl)piperidin-1-yl)acetyl)piperidin-4-yl)picolinamide], the DC50 on EGFR L858R-T790M (setting [6]), at EGFR L858R-T790M-C797S (setting [7]) and on EGFR L858R (setting [8]) was < 50 nM in each case.

As for `O=C1CC[C@@H](Nc2ccc(N3CCC(O)(CC(=O)N4CC5(C4)CN(c4ccc(-c6cc(F)c7c(c6)C(=O)N(C(C(=O)Nc6nccs6)c6ncn8c6CCC8)C7)cc4)C5)CC3)c(F)c2)C(=O)N1` (stereo partly drawn) [Compound 98, 2-(6,7-dihydro-5H-pyrrolo[1,2-c]imidazol-1-yl)-2-[6-[4-[2-[2-[1-[4-[[(3R)-2,6-dioxo-3-piperidyl]-amino]-2-fluoro-phenyl]-4-hydroxy-4-piperidyl]acetyl]-2,6-diazaspiro[3.3]heptan-6-yl]phenyl]-4-fluoro-1-oxo-isoindolin-2-yl]-N-thiazol-2-yl-acetamide], the DC50 on EGFR L858R-T790M (setting [6]), on EGFR L858R-T790M-C797S (setting [7]) and at EGFR L858R (setting [8]) was < 50 nM in each case.
